Assay results: patent US20150297733A1 (TRIMEL BIOPHARMA SRL, priority 2012, published 2015)
Like-named read-outs stand apart in the source and are kept apart here.

Tests used:
[1] = target: T1, sex hormone binding globulin (SHBG) (Homo sapiens, UniProt P04278); conditions: cited from earlier work
T1 sequence (P04278 30-402): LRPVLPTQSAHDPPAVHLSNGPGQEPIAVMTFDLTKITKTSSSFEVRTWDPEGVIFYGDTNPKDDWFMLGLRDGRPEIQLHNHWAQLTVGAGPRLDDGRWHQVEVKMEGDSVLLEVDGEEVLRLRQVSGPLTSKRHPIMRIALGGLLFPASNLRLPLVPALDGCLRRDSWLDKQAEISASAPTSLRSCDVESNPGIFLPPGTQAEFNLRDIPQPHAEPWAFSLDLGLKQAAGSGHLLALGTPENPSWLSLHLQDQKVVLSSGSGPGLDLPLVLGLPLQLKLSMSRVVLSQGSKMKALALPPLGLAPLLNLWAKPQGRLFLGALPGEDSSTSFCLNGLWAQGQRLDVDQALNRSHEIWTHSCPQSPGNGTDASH

[2] = Solubility of testosterone in water, oils, solvents and vehicles
[3] = dissolved in polyethylene glycol (200 mg/ml); high variations; cited from earlier work
[4] = nasal, cited from earlier work
[5] = nasal, cited from earlier work; remark: listed apart in the source

Compound: C[C@]12CC[C@H]3[C@@H](CCC4=CC(=O)CC[C@@]43C)[C@@H]1CC[C@@H]2O [Testosterone]
- fraction remaining unbound (free) ([1]; in men): about 2%
- fraction remaining unbound (free) ([1]; in women): up to 3%
- amount dissolved by diethyleneglycol ethyl ether alone [2]: more than 10%
- amount dissolved by dimethyl isosorbide (DMI) [2]: more than 12%
- testosterone levels in the gel allowed by DMI with the other excipients [2]: at least 8.0%
- testosterone solubility in the oil based gel ([2]; oil based TBS-1A gel as printed): ≤ 4.5%

Compound: CC(=O)[C@H]1CC[C@H]2[C@@H]3CCC4=CC(=O)CC[C@]4(C)[C@H]3CC[C@]12C [progesterone]
- duration of serum level [3]: at least 8 hours
- Tmax ([4]; co-ground and co-lyophilized progesterone/cyclodextrin powder mixtures): 2 to 5 min
- time of serum level decrease ([4]; progesterone/cyclodextrin powder mixtures): ≤ 20 min

Compound: CN(C)CC(=O)O[C@H]1CC[C@H]2[C@@H]3CCC4=CC(=O)CC[C@]4(C)[C@H]3CC[C@]12C [testosterone 17β-N,N-dimethylglycinate]
- time to peak plasma concentration ([5]; 25 mg dose): ≤ 12 min
- time to peak plasma concentration ([5]; 50 mg dose): ≤ 20 min
